Holding throughout (type): cell-based
Assay [1] addresses T1, CaV2.2 (Homo sapiens, UniProt Q00975).
T1 construct: expressed in transfected cells; host or cells: unnamed doxycycline-inducible cell line
Put plainly: High-throughput CaV2.2/Kir2.3 FLIPR fluorescent assay. Particulars: Fluo-4 FLIPR, closed or inactivated state not stated, read-out: FLIPR data CaV2.2. Summed up: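 Doxycycline-induced cells moved to 29 °C on assay day and were loaded with 4.4 μM Fluo-4. They were held in 2 mM KCl (closed state) or 12.5 mM KCl (inactivated state) buffer, pH 7.4, then depolarized with 130 mM KCl. Fluorescence was read 3 min on FLIPR, and IC50 was obtained from logistic fits.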

For assay [2], the target named is T2, CaV3.1 (Homo sapiens, UniProt O43497).
T2 construct: expressed in transfected cells; host or cells: unnamed doxycycline-inducible cell line
Put plainly: High-throughput CaV3.1 T-type FLIPR fluorescent assay. The settings on record: Fluo-4 FLIPR. The gist of the method: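 Doxycycline-induced CaV3.1 cells were loaded with Fluo-4 at 29 °C and pre-incubated with compound for 20 min at 29 °C in low-Ca2+ buffer (0.001 mM CaCl2, pH 7.2). Calcium entry was triggered by buffer containing 6 mM CaCl2, and Fluo-4 fluorescence was recorded on FLIPR for 3 min. IC50 came from logistic fits.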

Assay [3] deals with T3, CaV3.2 (Homo sapiens, UniProt O95180).
T3 construct: expressed in transfected cells; host or cells: unnamed doxycycline-inducible cell line
Briefly: High-throughput CaV3.2/Kir2.3 T-type FLIPR fluorescent assay. The settings on record: Fluo-4 FLIPR, closed or inactivated state not stated. The gist of the method: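 Doxycycline-induced cells loaded with Fluo-4, preincubated 20 min at 29°C with compound in 2 mM KCl (closed-state) or 7.6 mM KCl (inactivated-state) buffer, pH 7.4. Calcium entry triggered by 12 mM or 14.5 mM KCl respectively; fluorescence read 3 min by FLIPR, IC50 from logistic fit.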

Read-outs that look alike come from different tables or passages of the source.

T2 sequence (O43497 whole entry): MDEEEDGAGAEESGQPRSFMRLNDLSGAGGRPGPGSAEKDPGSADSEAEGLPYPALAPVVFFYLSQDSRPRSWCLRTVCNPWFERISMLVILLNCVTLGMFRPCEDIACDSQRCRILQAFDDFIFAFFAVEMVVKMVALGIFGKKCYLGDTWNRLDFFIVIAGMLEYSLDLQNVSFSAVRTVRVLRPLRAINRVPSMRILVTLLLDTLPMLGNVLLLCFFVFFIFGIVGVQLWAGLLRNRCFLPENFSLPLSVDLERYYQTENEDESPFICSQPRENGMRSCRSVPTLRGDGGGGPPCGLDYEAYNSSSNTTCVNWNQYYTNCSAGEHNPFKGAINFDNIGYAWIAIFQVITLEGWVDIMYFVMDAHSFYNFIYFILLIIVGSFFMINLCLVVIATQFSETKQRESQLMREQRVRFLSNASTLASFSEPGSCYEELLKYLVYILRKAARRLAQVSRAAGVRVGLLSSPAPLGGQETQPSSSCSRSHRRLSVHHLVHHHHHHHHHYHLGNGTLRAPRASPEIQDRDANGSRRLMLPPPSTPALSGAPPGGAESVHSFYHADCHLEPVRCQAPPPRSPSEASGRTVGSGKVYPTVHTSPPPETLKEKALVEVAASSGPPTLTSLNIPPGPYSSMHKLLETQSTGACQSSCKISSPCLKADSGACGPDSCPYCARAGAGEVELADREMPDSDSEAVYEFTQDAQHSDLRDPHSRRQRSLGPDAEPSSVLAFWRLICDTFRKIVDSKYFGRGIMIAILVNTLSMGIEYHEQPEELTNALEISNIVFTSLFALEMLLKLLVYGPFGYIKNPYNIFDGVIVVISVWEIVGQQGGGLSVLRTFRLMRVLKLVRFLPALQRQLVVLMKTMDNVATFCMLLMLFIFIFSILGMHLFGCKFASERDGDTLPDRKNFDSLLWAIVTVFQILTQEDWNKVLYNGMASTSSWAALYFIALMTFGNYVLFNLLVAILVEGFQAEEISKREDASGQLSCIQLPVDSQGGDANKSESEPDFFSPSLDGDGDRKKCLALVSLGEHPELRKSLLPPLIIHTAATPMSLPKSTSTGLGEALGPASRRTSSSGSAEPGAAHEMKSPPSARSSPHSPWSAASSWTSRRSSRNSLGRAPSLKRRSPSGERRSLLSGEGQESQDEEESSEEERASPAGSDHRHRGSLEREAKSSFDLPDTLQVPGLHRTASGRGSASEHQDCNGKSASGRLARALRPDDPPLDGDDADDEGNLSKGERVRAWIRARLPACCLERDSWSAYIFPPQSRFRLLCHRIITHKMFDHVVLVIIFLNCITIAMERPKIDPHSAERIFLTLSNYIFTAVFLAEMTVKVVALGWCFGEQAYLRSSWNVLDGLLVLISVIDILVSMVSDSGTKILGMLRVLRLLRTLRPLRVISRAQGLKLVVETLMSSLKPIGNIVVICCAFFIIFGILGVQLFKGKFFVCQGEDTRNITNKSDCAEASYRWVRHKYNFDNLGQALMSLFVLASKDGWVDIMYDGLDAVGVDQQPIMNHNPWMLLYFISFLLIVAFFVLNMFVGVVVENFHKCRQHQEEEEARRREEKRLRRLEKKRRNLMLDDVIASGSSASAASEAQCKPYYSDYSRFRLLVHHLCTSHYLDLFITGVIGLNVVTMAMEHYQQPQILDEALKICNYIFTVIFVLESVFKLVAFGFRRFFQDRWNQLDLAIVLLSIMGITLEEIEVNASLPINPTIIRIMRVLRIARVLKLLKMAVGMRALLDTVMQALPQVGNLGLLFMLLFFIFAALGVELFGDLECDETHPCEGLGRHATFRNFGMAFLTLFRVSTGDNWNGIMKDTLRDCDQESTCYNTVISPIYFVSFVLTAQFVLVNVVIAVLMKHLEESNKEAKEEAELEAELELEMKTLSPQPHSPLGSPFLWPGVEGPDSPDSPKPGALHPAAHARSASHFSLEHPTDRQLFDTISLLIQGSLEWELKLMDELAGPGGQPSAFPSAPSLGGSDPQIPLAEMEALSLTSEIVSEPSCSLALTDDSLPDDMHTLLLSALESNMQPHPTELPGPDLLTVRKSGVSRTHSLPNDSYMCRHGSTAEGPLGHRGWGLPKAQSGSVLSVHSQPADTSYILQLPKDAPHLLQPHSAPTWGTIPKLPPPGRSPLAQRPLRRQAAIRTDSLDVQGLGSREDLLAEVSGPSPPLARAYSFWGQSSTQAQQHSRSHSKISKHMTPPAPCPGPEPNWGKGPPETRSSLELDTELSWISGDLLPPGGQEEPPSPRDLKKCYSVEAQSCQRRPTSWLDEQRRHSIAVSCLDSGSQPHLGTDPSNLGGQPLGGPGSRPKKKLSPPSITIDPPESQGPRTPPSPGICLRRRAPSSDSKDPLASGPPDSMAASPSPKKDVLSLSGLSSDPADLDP
T3 sequence (O95180 whole entry): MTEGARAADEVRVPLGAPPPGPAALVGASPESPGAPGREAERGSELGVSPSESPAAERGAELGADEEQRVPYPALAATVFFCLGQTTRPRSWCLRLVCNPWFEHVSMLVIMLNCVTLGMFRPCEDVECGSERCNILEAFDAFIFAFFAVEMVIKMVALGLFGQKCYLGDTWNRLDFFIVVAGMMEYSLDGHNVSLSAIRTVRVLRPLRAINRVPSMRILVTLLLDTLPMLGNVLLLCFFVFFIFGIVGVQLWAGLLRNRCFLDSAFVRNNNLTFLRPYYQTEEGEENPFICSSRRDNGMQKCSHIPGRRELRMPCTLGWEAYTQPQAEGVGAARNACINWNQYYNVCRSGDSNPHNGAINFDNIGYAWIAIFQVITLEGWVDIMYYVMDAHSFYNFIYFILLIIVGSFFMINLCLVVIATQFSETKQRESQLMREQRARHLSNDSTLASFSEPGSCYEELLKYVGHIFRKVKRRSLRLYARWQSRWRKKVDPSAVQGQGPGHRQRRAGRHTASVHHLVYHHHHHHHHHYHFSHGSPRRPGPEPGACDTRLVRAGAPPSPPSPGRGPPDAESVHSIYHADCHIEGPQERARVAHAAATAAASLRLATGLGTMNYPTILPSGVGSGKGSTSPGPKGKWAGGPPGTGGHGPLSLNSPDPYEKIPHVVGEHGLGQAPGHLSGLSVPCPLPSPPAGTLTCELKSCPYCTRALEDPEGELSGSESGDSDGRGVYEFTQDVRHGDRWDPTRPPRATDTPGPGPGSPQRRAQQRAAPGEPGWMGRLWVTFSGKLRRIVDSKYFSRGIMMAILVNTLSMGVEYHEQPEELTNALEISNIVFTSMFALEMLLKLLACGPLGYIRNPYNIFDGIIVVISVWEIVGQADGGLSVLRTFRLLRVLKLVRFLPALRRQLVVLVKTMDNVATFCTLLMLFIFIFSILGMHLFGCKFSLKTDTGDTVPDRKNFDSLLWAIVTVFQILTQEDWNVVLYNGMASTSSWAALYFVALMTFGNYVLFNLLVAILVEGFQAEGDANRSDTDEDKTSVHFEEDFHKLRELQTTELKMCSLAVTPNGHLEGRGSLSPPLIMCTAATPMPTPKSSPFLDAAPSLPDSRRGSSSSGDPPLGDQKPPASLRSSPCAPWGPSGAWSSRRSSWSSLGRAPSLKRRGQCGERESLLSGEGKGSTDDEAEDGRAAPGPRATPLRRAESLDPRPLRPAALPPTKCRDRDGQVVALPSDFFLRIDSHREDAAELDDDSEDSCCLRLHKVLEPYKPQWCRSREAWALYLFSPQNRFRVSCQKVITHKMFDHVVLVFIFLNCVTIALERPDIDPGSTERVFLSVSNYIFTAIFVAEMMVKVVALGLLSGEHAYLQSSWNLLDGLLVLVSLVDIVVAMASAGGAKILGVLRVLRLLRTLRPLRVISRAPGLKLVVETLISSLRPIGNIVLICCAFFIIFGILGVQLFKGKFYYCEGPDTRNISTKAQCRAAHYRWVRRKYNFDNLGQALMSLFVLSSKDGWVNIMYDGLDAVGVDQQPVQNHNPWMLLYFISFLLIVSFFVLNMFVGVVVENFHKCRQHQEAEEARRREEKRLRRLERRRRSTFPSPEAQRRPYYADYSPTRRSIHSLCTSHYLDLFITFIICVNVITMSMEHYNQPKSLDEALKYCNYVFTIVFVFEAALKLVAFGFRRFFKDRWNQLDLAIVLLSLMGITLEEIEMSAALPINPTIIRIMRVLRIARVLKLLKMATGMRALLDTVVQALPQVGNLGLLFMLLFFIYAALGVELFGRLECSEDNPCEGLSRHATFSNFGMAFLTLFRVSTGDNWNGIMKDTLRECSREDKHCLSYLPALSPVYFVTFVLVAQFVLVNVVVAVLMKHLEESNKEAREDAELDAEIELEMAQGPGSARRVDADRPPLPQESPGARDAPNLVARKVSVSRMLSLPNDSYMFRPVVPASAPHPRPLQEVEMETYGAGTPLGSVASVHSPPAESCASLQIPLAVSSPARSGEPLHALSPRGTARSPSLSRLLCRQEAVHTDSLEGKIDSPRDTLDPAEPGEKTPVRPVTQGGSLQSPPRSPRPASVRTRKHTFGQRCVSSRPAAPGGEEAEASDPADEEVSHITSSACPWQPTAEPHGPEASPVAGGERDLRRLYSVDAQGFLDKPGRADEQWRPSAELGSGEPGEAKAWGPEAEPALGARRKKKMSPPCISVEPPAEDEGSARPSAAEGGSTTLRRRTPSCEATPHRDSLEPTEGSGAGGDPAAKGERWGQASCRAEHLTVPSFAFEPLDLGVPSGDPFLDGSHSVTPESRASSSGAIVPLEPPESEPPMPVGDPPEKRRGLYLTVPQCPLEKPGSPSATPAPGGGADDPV

In the case of `CC(C)(C(=O)N1CCC(c2ccc(C(F)(F)F)cc2)CC1)S(=O)(=O)c1cccc(C(F)(F)F)c1` [Compound 136, 2-methyl-1-(4-(4-(trifluoromethyl)phenyl)piperidin-1-yl)-2-((3-(trifluoromethyl)phenyl)sulfonyl)propan-1-one], the results for the IC50 in assay [1] (Table 5), in assay [2] (Table 5) and in assay [3] (Table 5) were 390 nM, 4400 nM and 2440 nM, respectively.
The like results for `CC(C)(C(=O)N1CCN(c2cc(Cl)cc(Cl)c2)CC1)S(=O)(=O)c1cccc(C(F)(F)F)c1` [Compound 134, 1-(4-(3,5-dichlorophenyl)piperazin-1-yl)-2-methyl-2-((3-(trifluoromethyl)phenyl)sulfonyl)propan-1-one] were, in that order, 1160 nM, 8690 nM and 7580 nM.
`CC(C)S(=O)(=O)c1cc(C(F)(F)F)cnc1C(=O)NCc1ccc(S(=O)(=O)c2cccc(C(F)(F)F)c2)cn1` [Compound 96, 3-(isopropylsulfonyl)-5-(trifluoromethyl)-N-((5-((3-(trifluoromethyl)phenyl)sulfonyl)pyridin-2-yl)methyl)picolinamide]: the IC50 in assay [1] (Table 4) came to 640 nM; in assay [2] (Table 4), 1560 nM; in assay [3] (Table 4) it was 2140 nM.
The like results for `CS(=O)(=O)c1cc(C(F)(F)F)cnc1C(=O)NCc1cccc(S(=O)(=O)c2cccc(C(F)(F)F)c2)c1` [Compound 24, 3-(methylsulfonyl)-5-(trifluoromethyl)-N-(3-((3-(trifluoromethyl)phenyl)sulfonyl)benzyl)picolinamide] were, in that order, 410 nM, 3240 nM and 550 nM.
Regarding `O=C(NCc1cccc(S(=O)(=O)c2cccc(C(F)(F)F)c2)c1)c1cnc(C(F)(F)F)nc1` [Compound 26, 2-(trifluoromethyl)-N-(3-((3-(trifluoromethyl)phenyl)sulfonyl)benzyl)pyrimidine-5-carboxamide], the IC50 in assay [1] (Table 4) came to 580 nM; in assay [2] (Table 4) it was 1880 nM; in assay [3] (Table 4), 1180 nM.
For the compound `CC(C)(CCNC(=O)[C@@H]1C[C@@H](C2CCCCC2)CN1)S(=O)(=O)c1cccc(C(F)(F)F)c1` [Compound 218, (2S,4S)-4-cyclohexyl-N-(3-methyl-3-((3-(trifluoromethyl)phenyl)sulfonyl)butyl)pyrrolidine-2-carboxamide], the IC50 was found to be 740 nM in assay [1] (Table 5), 5640 nM in assay [2] (Table 5) and 3210 nM in assay [3] (Table 5).
The like results for `CC(C)(C(=O)NCc1ccccc1S(=O)(=O)c1cccc(C(F)(F)F)c1)S(=O)(=O)c1cccc(C(F)(F)F)c1` [Compound 227, 2-methyl-2-((3-(trifluoromethyl)phenyl)sulfonyl)-N-(2-((3-(trifluoromethyl)phenyl)sulfonyl)benzyl)propanamide] were, in that order, 400 nM, 630 nM and 350 nM.
In the case of `O=C(NCc1cccc(S(=O)(=O)c2cccc(C(F)(F)F)c2)c1)c1ccnc(C(F)(F)F)c1` [Compound 31, 2-(trifluoromethyl)-N-(3-((3-(trifluoromethyl)phenyl)sulfonyl)benzyl)isonicotinamide], the IC50 was found to be 390 nM in assay [1] (Table 4), 1750 nM in assay [2] (Table 4) and 730 nM in assay [3] (Table 4).
The like results for `N[C@H](C(=O)NCc1ccc(S(=O)(=O)c2cccc(C(F)(F)F)c2)cc1)c1ccccc1` [Compound 67, (S)-2-amino-2-phenyl-N-(4-((3-(trifluoromethyl)phenyl)sulfonyl)benzyl)acetamide] were, in that order, 660 nM, 3640 nM and 3740 nM.
The like results for `O=C(NCc1cccc(S(=O)(=O)c2cccc(C(F)(F)F)c2)c1)c1ccnn1CC(F)(F)F` [Compound 29, 1-(2,2,2-trifluoroethyl)-N-(3-((3-(trifluoromethyl)phenyl)sulfonyl)benzyl)-1H-pyrazole-5-carboxamide] were, in that order, 340 nM, 1850 nM and 600 nM.

(Values after patent US20140113898A1, “BISARYLSULFONE AND DIALKYLARYLSULFONE COMPOUNDS AS CALCIUM CHANNEL BLOCKERS” (Zalicus Pharmaceuticals Ltd., priority 2010, published 2014).)
